Test results published in PubChem BioAssay (NCI).
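The compound was tested at five concentrations on cells cultured in 96-well plates, with a 48-hour exposure period. GI50: concentration for 50% inhibition of growth. TGI marks complete inhibition of growth.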

Assays:
Experiment in all cases: NCI tumour cell line growth inhibition, 48 h
[1] = system: TK-10 renal
[2] = system: SF-539 CNS
[3] = system: SN12C renal
[4] = system: SK-MEL-5 melanoma
[5] = system: OVCAR-5 ovarian
[6] = system: SNB-19 CNS
[7] = system: NCI-H226 lung
[8] = system: PC-3 prostate
[9] = system: MALME-3M melanoma
[10] = system: BT-549 breast

Structure (SMILES) | TGI [1] | TGI [2] | TGI [3] | TGI [4] | TGI [5] | TGI [6] | TGI [7] | GI50 [8] | TGI [8] | GI50 [1] | GI50 [9] | TGI [9] | GI50 [2] | GI50 [3] | GI50 [4] | GI50 [5] | GI50 [6] | GI50 [7] | GI50 [10] | TGI [10]
O=C(NCCNCCO)c1cccc2ccc(-c3ccccc3)nc12 | 6.72 µM | 13 µM | 17.6 µM | 12.5 µM | 18.2 µM | 28.7 µM | 17.4 µM | – | – | – | – | – | – | – | – | – | – | – | – | –
Cc1ccncc1C(N)=O | > 100 µM | > 100 µM | > 100 µM | > 100 µM | > 100 µM | > 100 µM | > 100 µM | > 100 µM | > 100 µM | > 100 µM | > 100 µM | > 100 µM | > 100 µM | > 100 µM | > 100 µM | > 100 µM | > 100 µM | > 100 µM | – | –
COc1ccc(-c2[nH]c3ccccc3c2CCNS(=O)(=O)c2ccc(C)cc2)cc1 | > 10 µM | > 10 µM | > 10 µM | > 10 µM | > 10 µM | > 10 µM | > 10 µM | – | – | – | – | > 10 µM | – | – | – | – | – | – | – | –
C=C1[C@@H](O)O[C@H]2[C@H]1C[C@H](OC(C)=O)[C@]13C(=O)O[C@H]4C[C@](C)(O)[C@H]([C@H]41)C31C=C(C)[C@]2(O)O1 | – | 52 µM | 95.2 µM | – | 48 µM | > 100 µM | – | 53.3 µM | > 100 µM | – | 16.3 µM | 46.1 µM | 21.1 µM | 26.6 µM | – | 21.7 µM | > 100 µM | – | – | –
c1ccc2c(c1)CCc1c-2n[nH]c1-c1[nH]nc2c1CCc1ccccc1-2 | > 100 µM | > 100 µM | > 100 µM | > 100 µM | > 100 µM | > 100 µM | > 100 µM | – | – | – | – | > 100 µM | – | – | – | – | – | – | – | –
O=C1OC(=O)c2c1c(-c1ccccc1)nc1ccccc21 | > 100 µM | > 100 µM | > 100 µM | > 100 µM | – | > 100 µM | > 100 µM | – | – | – | – | > 100 µM | – | – | – | – | – | – | – | –
CCCC(S(=O)(=O)c1ccccc1)S(=O)(=O)c1ccccc1 | > 100 µM | > 100 µM | – | > 100 µM | > 100 µM | – | > 100 µM | – | – | – | – | > 100 µM | – | – | – | – | – | – | – | –
O=C1c2ccccc2N2OC3(N4CCCC4)CCCCC3C12c1ccccc1 (stereo not drawn) | – | 80.5 µM | 30.5 µM | 32 µM | – | > 100 µM | > 100 µM | – | – | – | – | 38.7 µM | – | – | – | – | – | – | – | –
C[CH2][Hg][S]c1ccccc1C(=O)O | 2.73 µM | 3.32 µM | 2.61 µM | – | 3.26 µM | 12.3 µM | – | 3.88 µM | 17.7 µM | 1.42 µM | 0.801 µM | 2.25 µM | 1.7 µM | 1.31 µM | – | 1.77 µM | 2.98 µM | – | 1.43 µM | 2.76 µM
COC(=O)C(C(=O)C(=O)Nc1ccc([N+](=O)[O-])cc1)c1nc2ccc([N+](=O)[O-])cc2[nH]c1=O (stereo not drawn) | > 100 µM | > 100 µM | > 100 µM | > 100 µM | > 100 µM | > 100 µM | > 100 µM | – | – | – | – | > 100 µM | – | – | – | – | – | – | – | –
Cc1cccc(NC(=O)/C(=N\N)C(c2cnc3ccc([N+](=O)[O-])cc3n2)[N+](=O)[O-])c1C (stereo not drawn) | > 100 µM | > 100 µM | > 100 µM | > 100 µM | – | > 100 µM | > 100 µM | – | – | – | – | > 100 µM | – | – | – | – | – | – | – | –
